Results reported in patent US20230073777A1, “CYCLIC-AMP RESPONSE ELEMENT BINDING PROTEIN (CBP) AND/OR ADENOVIRAL E1A BINDING PROTEIN OF 300 KDA (P300) DEGRADATION COMPOUNDS AND METHODS OF USE” (CULLGEN (SHANGHAI), INC., priority 2019, published 2023).
Like-named read-outs stand apart in the source and are kept apart here.

Legend:
[1] = molecular target: P300 (Homo sapiens, UniProt Q09472); test: Immunoblotting of P300 protein levels in LNCaP or 22RV1 cells; format: cell-based; design: LNCaP or 22RV1 cells that express CBP/P300 proteins were treated with GNE-781 or the bivalent compounds; endogenous in cells; host or cells: LNCaP (clone FGC) or 22RV1 cells; settings: read-out: Degradation (10 nM)
In short: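 LNCaP or 22RV1 cells treated with compounds for indicated hours, DMSO as negative control. RIPA lysates resolved by SDS-PAGE and immunoblotted for P300 or CBP, tubulin or vinculin as loading control; chemiluminescent bands quantitated.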

[2] = system: LNCaP cells; test: LNCaP cell viability assay (CellTiter-Glo); format: cell-based; settings: Homo sapiens, 72 h; LNCaP prostate cancer cell viability inhibition, 3 days, CellTiter-Glo (Table 3)
In short: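 LNCaP cells, 5000/well, exposed to compounds in 12-point 3-fold serial dilution (top 10 μM) for 3 days. Viability by CellTiter-Glo luminescence, normalized to untreated cells; IC50 by least-squares nonlinear regression.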

[3] = percentage of inhibition of p300 at 10 nM (Table 3)

P300, sequence (Q09472 whole entry): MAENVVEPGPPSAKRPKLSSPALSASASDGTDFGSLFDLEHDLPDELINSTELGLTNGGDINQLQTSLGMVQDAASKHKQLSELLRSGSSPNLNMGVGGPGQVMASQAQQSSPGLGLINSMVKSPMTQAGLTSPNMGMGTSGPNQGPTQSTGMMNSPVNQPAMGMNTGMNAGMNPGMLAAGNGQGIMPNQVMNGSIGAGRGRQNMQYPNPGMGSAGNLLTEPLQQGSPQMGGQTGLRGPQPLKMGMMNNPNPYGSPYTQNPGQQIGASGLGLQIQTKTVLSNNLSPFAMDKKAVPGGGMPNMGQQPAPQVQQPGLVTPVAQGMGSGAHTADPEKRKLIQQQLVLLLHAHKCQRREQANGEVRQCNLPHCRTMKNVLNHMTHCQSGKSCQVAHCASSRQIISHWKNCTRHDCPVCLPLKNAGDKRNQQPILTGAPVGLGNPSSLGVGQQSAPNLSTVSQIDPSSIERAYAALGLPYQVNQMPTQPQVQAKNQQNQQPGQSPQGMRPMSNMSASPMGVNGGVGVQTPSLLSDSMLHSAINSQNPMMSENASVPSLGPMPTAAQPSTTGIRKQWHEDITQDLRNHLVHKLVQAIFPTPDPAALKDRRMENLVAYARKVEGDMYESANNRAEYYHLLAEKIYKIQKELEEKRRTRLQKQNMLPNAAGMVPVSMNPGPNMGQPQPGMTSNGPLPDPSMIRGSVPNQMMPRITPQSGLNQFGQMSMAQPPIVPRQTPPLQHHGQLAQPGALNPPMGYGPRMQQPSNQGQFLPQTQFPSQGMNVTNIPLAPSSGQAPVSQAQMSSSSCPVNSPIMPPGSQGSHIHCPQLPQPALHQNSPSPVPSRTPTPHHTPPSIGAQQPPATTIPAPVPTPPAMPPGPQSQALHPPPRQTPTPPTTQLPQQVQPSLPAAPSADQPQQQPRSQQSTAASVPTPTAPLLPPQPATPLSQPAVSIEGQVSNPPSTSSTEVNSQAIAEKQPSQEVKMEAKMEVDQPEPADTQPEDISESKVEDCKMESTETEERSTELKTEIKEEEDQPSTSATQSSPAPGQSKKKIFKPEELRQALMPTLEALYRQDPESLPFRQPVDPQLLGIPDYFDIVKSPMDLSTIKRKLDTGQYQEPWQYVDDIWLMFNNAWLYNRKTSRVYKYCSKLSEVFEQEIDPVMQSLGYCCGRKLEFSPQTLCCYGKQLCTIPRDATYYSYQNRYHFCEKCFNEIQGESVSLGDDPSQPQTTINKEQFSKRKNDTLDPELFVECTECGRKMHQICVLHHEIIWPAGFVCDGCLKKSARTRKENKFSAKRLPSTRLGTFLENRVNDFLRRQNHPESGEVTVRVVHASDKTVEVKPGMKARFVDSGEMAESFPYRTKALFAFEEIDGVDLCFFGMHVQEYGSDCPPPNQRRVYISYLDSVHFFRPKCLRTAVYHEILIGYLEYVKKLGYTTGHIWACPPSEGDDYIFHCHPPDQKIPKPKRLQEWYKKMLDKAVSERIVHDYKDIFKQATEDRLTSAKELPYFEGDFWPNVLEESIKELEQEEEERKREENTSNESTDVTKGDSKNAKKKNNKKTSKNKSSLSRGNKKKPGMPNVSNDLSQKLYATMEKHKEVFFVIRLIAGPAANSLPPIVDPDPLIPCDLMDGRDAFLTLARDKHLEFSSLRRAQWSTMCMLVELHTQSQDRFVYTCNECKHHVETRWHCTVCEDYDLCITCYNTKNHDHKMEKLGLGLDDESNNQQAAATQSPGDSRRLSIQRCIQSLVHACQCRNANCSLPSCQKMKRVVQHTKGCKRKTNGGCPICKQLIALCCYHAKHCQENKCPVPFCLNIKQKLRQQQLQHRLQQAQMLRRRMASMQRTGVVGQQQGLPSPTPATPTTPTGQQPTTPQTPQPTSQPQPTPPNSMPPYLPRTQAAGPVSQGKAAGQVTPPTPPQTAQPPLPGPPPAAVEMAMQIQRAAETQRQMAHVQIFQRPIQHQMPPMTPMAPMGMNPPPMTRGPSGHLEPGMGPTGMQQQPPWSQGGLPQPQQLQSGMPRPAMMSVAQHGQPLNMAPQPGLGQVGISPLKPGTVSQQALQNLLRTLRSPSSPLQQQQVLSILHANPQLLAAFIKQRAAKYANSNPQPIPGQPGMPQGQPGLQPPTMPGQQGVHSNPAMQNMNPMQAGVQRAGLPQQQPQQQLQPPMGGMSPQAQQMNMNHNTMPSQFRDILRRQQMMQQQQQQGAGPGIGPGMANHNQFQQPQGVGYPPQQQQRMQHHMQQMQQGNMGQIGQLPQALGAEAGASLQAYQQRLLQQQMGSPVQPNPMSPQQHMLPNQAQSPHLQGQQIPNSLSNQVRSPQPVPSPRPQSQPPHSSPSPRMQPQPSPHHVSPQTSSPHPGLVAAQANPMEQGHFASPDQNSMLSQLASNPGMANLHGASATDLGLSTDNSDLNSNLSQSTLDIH

Compound	inhibition at 0.01 µM [1, 3] [%]	IC50 [2] [nM]	inhibition at 0.01 µM [1] [%]
CNC(=O)N1CCc2c(c(N3CCCc4cc(-c5cnn(C)c5)c(C(F)F)cc43)nn2C2CCN(C(=O)CCCCCOc3cccc4c3C(=O)N(C3CCC(=O)NC3=O)C4)CC2)C1 (stereo not drawn) [P-089, 3-(7-(Difluoromethyl)-6-(1-methyl-1H-pyrazol-4-yl)-3,4-dihydroquinolin-1(2H)-yl)-1-(1-(6-((2-(2,6-dioxopiperidin-3-yl)-3-oxoisoindolin-4-yl)oxy)hexanoyl)piperidin-4-yl)-N-methyl-1,4,6,7-tetrahydro-5H-pyrazolo[4,3-c]pyridine-5-carboxamide]	< 20	78.5	–
CNC(=O)N1CCc2c(c(N3CCCc4cc(-c5cnn(C)c5)c(C(F)F)cc43)nn2C2CCN(C(=O)CCCCC#Cc3cccc4c3CN(C3CCC(=O)NC3=O)C4=O)CC2)C1 (stereo not drawn) [P-093, 3-(7-(difluoromethyl)-6-(1-methyl-1H-pyrazol-4-yl)-3,4-dihydroquinolin-1(2H)-yl)-1-(1-(7-(2-(2,6-dioxopiperidin-3-yl)-1-oxoisoindolin-4-yl)hept-6-ynoyl)piperidin-4-yl)-N-methyl-1,4,6,7-tetrahydro-5H-pyrazolo[4,3-c]pyridine-5-carboxamide]	> 80	25.2	–
CNC(=O)N1CCc2c(c(N3CCCc4cc(-c5cnn(C)c5)c(C(F)F)cc43)nn2C2CCN(C(=O)CCCCCNc3cccc4c3C(=O)N(C3CCC(=O)NC3=O)C4)CC2)C1 (stereo not drawn) [P-096, 3-(7-(difluoromethyl)-6-(1-methyl-1H-pyrazol-4-yl)-3,4-dihydroquinolin-1(2H)-yl)-1-(1-(6-((2-(2,6-dioxopiperidin-3-yl)-3-oxoisoindolin-4-yl)amino)hexanoyl)piperidin-4-yl)-N-methyl-1,4,6,7-tetrahydro-5H-pyrazolo[4,3-c]pyridine-5-carboxamide]	> 80	26.6	–
CNC(=O)N1CCc2c(c(N3CCCc4cc(-c5cnn(C)c5)c(C(F)F)cc43)nn2C2CCN(C(=O)CCCCCn3c(=O)n(C4CCC(=O)NC4=O)c4ccccc43)CC2)C1 (stereo not drawn) [P-105, 3-(7-(Difluoromethyl)-6-(1-methyl-1H-pyrazol-4-yl)-3,4-dihydroquinolin-1(2H)-yl)-1-(1-(6-(3-(2,6-dioxopiperidin-3-yl)-2-oxo-2,3-dihydro-1H-benzo[d]imidazol-1-yl)hexanoyl)piperidin-4-yl)-N-methyl-1,4,6,7-tetrahydro-5H-pyrazolo[4,3-c]pyridine-5-carboxamide]	50 to 80	44.5	–
CNC(=O)N1CCc2c(c(N3CCCc4cc(-c5cnn(C)c5)c(C(F)F)cc43)nn2C2CCN(C(=O)CCCCCCn3c(=O)n(C4CCC(=O)NC4=O)c4ccccc43)CC2)C1 (stereo not drawn) [P-106, 3-(7-(difluoromethyl)-6-(1-methyl-1H-pyrazol-4-yl)-3,4-dihydroquinolin-1(2H)-yl)-1-(1-(7-(3-(2,6-dioxopiperidin-3-yl)-2-oxo-2,3-dihydro-1H-benzo[d]imidazol-1-yl)heptanoyl)piperidin-4-yl)-N-methyl-1,4,6,7-tetrahydro-5H-pyrazolo[4,3-c]pyridine-5-carboxamide]	–	24.2	50 to 80

The next lines start with results.

inhibition at 0.01 µM [1, 3] [%]	IC50 [2] [nM]	Compound	inhibition at 0.01 µM [1] [%]
> 80	1	CNC(=O)N1CCc2c(c(N3CCCc4cc(-c5cnn(C)c5)c(C(F)F)cc43)nn2C2CCN(CCCCCCNc3cccc4c3C(=O)N(C3CCC(=O)NC3=O)C4=O)CC2)C1 (stereo not drawn) [P-090, 3-(7-(difluoromethyl)-6-(1-methyl-1H-pyrazol-4-yl)-3,4-dihydroquinolin-1(2H)-yl)-1-(1-(6-((2-(2,6-dioxopiperidin-3-yl)-1,3-dioxoisoindolin-4-yl)amino)hexyl)piperidin-4-yl)-N-methyl-1,4,6,7-tetrahydro-5H-pyrazolo[4,3-c]pyridine-5-carboxamide]	–
> 80	2.1	CNC(=O)N1CCc2c(c(N3CCCc4cc(-c5cnn(C)c5)c(C(F)F)cc43)nn2C2CCN(CCCCCCOc3cccc4c3C(=O)N(C3CCC(=O)NC3=O)C4=O)CC2)C1 (stereo not drawn) [P-091, 3-(7-(difluoromethyl)-6-(1-methyl-1H-pyrazol-4-yl)-3,4-dihydroquinolin-1(2H)-yl)-1-(1-(6-((2-(2,6-dioxopiperidin-3-yl)-1,3-dioxoisoindolin-4-yl)oxy)hexyl)piperidin-4-yl)-N-methyl-1,4,6,7-tetrahydro-5H-pyrazolo[4,3-c]pyridine-5-carboxamide]	–
20 to 50	56.5	CNC(=O)N1CCc2c(c(N3CCCc4cc(-c5cnn(C)c5)c(C(F)F)cc43)nn2C2CCN(C(=O)CCCCC#Cc3cccc4c3C(=O)N(C3CCC(=O)NC3=O)C4=O)CC2)C1 (stereo not drawn) [P-092, 3-(7-(Difluoromethyl)-6-(1-methyl-1H-pyrazol-4-yl)-3,4-dihydroquinolin-1(2H)-yl)-1-(1-(7-(2-(2,6-dioxopiperidin-3-yl)-1,3-dioxoisoindolin-4-yl)hept-6-ynoyl)piperidin-4-yl)-N-methyl-1,4,6,7-tetrahydro-5H-pyrazolo[4,3-c]pyridine-5-carboxamide]	–
20 to 50	67.7	CNC(=O)N1CCc2c(c(N3CCCc4cc(-c5cnn(C)c5)c(C(F)F)cc43)nn2C2CCN(C(=O)CCCCCNc3cccc4c3CN(C3CCC(=O)NC3=O)C4=O)CC2)C1 (stereo not drawn) [P-095, 3-(7-(Difluoromethyl)-6-(1-methyl-1H-pyrazol-4-yl)-3,4-dihydroquinolin-1(2H)-yl)-1-(1-(6-((2-(2,6-dioxopiperidin-3-yl)-1-oxoisoindolin-4-yl)amino)hexanoyl)piperidin-4-yl)-N-methyl-1,4,6,7-tetrahydro-5H-pyrazolo[4,3-c]pyridine-5-carboxamide]	–
> 80	49	CNC(=O)N1CCc2c(c(N3CCCc4cc(-c5cnn(C)c5)c(C(F)F)cc43)nn2C2CCN(CCCCCCCc3cccc4c3C(=O)N(C3CCC(=O)NC3=O)C4=O)CC2)C1 (stereo not drawn) [P-097, 3-(7-(difluoromethyl)-6-(1-methyl-1H-pyrazol-4-yl)-3,4-dihydroquinolin-1(2H)-yl)-1-(1-(7-(2-(2,6-dioxopiperidin-3-yl)-1,3-dioxoisoindolin-4-yl)heptyl)piperidin-4-yl)-N-methyl-1,4,6,7-tetrahydro-5H-pyrazolo[4,3-c]pyridine-5-carboxamide]	–
50 to 80	14.9	CNC(=O)N1CCc2c(c(N3CCCc4cc(-c5cnn(C)c5)c(C(F)F)cc43)nn2C2CCN(C(=O)CN3CCC(CNc4cccc5c4C(=O)N(C4CCC(=O)NC4=O)C5=O)CC3)CC2)C1 (stereo not drawn) [P-102]	–
> 80	12.1	CNC(=O)N1CCc2c(c(N3CCCc4cc(-c5cnn(C)c5)c(C(F)F)cc43)nn2C2CCN(C(=O)CN3CCC(CCc4cccc5c4C(=O)N(C4CCC(=O)NC4=O)C5=O)CC3)CC2)C1 (stereo not drawn) [P-104, 3-(7-(difluoromethyl)-6-(1-methyl-1H-pyrazol-4-yl)-3,4-dihydroquinolin-1(2H)-yl)-1-(1-(2-(4-(2-(2-(2,6-dioxopiperidin-3-yl)-1,3-dioxoisoindolin-4-yl)ethyl)piperidin-1-yl)acetyl)piperidin-4-yl)-N-methyl-1,4,6,7-tetrahydro-5H-pyrazolo[4,3-c]pyridine-5-carboxamide]	–
